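Five compound concentrations were applied to cells in 96-well plates for 48 hours; endpoints were derived by simple linear interpolation of the resulting dose-response curve. GI50 = concentration required for 50% inhibition of growth.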 The source made the active and inactive calls. Rule as the data show it: active = GI50 up to about 1.1 µM and inactive = higher.
Tests used:
Experiment in all cases: growth of human tumour cells (NCI), 48 h
SF-539 = test system: SF-539
SK-OV-3 = test system: SK-OV-3
MOLT-4 = test system: MOLT-4
COLO 205 = test system: COLO 205
CCRF-CEM = test system: CCRF-CEM
SW-620 = test system: SW-620
SK-MEL-5 = test system: SK-MEL-5
OVCAR-4 = test system: OVCAR-4
HT-29 = test system: HT-29
NCI-H522 = test system: NCI-H522
MCF7 = test system: MCF7
LOX IMVI = test system: LOX IMVI
TK-10 = test system: TK-10
SN12C = test system: SN12C
HL-60 = test system: HL-60
SF-295 = test system: SF-295
MDA-N = test system: MDA-N
NCI-H23 = test system: NCI-H23
PC-3 = test system: PC-3
A549 = test system: A549
A498 = test system: A498
M14 = test system: M14
DU-145 = test system: DU-145
HCT-15 = test system: HCT-15
HCC 2998 = test system: HCC 2998
OVCAR-3 = test system: OVCAR-3
UACC-257 = test system: UACC-257
HOP-92 = test system: HOP-92
OVCAR-5 = test system: OVCAR-5
UO-31 = test system: UO-31
CAKI-1 = test system: CAKI-1
ACHN = test system: ACHN
BT-549 = test system: BT-549
NCI/ADR-RES = test system: NCI/ADR-RES
SF-268 = test system: SF-268
OVCAR-8 = test system: OVCAR-8
SR = test system: SR
U-251 = test system: U-251
MDA-MB-435 = test system: MDA-MB-435
SNB-19 = test system: SNB-19
Malme-3M = test system: Malme-3M
NCI-H460 = test system: NCI-H460
786-0 = test system: 786-0
NCI-H226 = test system: NCI-H226
MDA-MB-231 = test system: MDA-MB-231
RPMI-8226 = test system: RPMI-8226
UACC-62 = test system: UACC-62
T47D = test system: T47D
SK-MEL-28 = test system: SK-MEL-28
K562 = test system: K562
SK-MEL-2 = test system: SK-MEL-2
HCT-116 = test system: HCT-116
Hs-578T = test system: Hs-578T
RXF 393 = test system: RXF 393
KM12 = test system: KM12
HOP-62 = test system: HOP-62
SNB-75 = test system: SNB-75
IGROV-1 = test system: IGROV-1
EKVX = test system: EKVX

Measured: GI50

O=c1[nH]c(=O)n(C2OC(CO)C(O)C(F)C2O)cc1F (centres undefined)
active: MOLT-4 0.0803 µM
inactive: SF-539 > 100 µM | SK-OV-3 > 100 µM | COLO 205 > 100 µM | CCRF-CEM > 100 µM | SW-620 > 100 µM | SK-MEL-5 > 100 µM | OVCAR-4 > 100 µM | HT-29 > 100 µM | NCI-H522 > 100 µM | MCF7 > 100 µM | LOX IMVI > 100 µM | TK-10 > 100 µM | SN12C > 100 µM | HL-60 > 100 µM | SF-295 > 100 µM | MDA-N > 100 µM | NCI-H23 > 100 µM | PC-3 > 100 µM | A549 > 100 µM | A498 > 100 µM | M14 > 100 µM | DU-145 > 100 µM | HCC 2998 > 100 µM | OVCAR-3 > 100 µM | UACC-257 > 100 µM | HOP-92 > 100 µM | OVCAR-5 > 100 µM | UO-31 > 100 µM | CAKI-1 > 100 µM | ACHN > 100 µM | BT-549 > 100 µM | NCI/ADR-RES > 100 µM | SF-268 > 100 µM | OVCAR-8 > 100 µM | SR 25.4 µM | U-251 > 100 µM | MDA-MB-435 > 100 µM | SNB-19 > 100 µM | Malme-3M > 100 µM | NCI-H460 > 100 µM | 786-0 > 100 µM | NCI-H226 > 100 µM | MDA-MB-231 > 100 µM | RPMI-8226 > 100 µM | UACC-62 > 100 µM | T47D > 100 µM | SK-MEL-28 > 100 µM | K562 > 100 µM | SK-MEL-2 > 100 µM | HCT-116 > 100 µM | Hs-578T > 100 µM
> 100 µM: HCT-15

O=C(O)Cc1cc(F)ccc1C(=O)O
73.5 µM: HCT-15
inactive: SF-539 > 100 µM | SK-OV-3 > 100 µM | MOLT-4 > 100 µM | COLO 205 > 100 µM | RXF 393 58.5 µM | CCRF-CEM > 100 µM | SW-620 > 100 µM | SK-MEL-5 > 100 µM | HT-29 > 100 µM | NCI-H522 92 µM | MCF7 > 100 µM | LOX IMVI > 100 µM | TK-10 > 100 µM | KM12 > 100 µM | SN12C > 100 µM | HL-60 > 100 µM | SF-295 > 100 µM | HOP-62 > 100 µM | MDA-N > 100 µM | NCI-H23 > 100 µM | PC-3 > 100 µM | A549 > 100 µM | A498 > 100 µM | M14 > 100 µM | DU-145 > 100 µM | HCC 2998 > 100 µM | OVCAR-3 > 100 µM | UACC-257 > 100 µM | HOP-92 > 100 µM | OVCAR-5 > 100 µM | UO-31 > 100 µM | CAKI-1 31 µM | ACHN > 100 µM | BT-549 > 100 µM | SNB-75 80.4 µM | NCI/ADR-RES > 100 µM | SF-268 > 100 µM | OVCAR-8 > 100 µM | SR 77.1 µM | U-251 > 100 µM | MDA-MB-435 > 100 µM | SNB-19 > 100 µM | NCI-H460 > 100 µM | IGROV-1 23.6 µM | 786-0 > 100 µM | MDA-MB-231 > 100 µM | RPMI-8226 > 100 µM | UACC-62 > 100 µM | T47D > 100 µM | SK-MEL-28 60.3 µM | K562 > 100 µM | SK-MEL-2 > 100 µM | HCT-116 > 100 µM | Hs-578T > 100 µM | EKVX > 100 µM

From ChEMBL document CHEMBL1201862, “PubChem BioAssay data set” (2004)
